The values below come from paper PMC8911550, “The Effects of Side-Chain Configurations of a Retro–Inverso-Type Inhibitor on the Human T-Cell Leukemia Virus (HTLV)-1 Protease” (Molecules, 2022).

Numbered stars: 1 amine (or outer) side, 2 acyl side, 3 side chain; on linkers, the order of the positions; unused ones are H or OH. Square brackets hold non-standard residues; d marks the D form. Ends that are not written are not given here. Peptide text beside a SMILES is read from it. X1 = CC(C)C[C@H](C(=O)[*:2])[C@H](O)C[C@H]1CCCN1[*:1]; d(aIle) = CC[C@H](C)[C@@H](N)C(=O)O; aIle = CC[C@@H](C)[C@H](N)C(=O)O

In test [1] the target is T1, recombinant HTLV-1 protease (1-116, L40I) (Human T-cell leukemia virus 1, UniProt P10274, L489I).
T1 construct: examined using the recombinant HTLV-1 protease (1-116, L40I) and a substrate dodecapeptide; made in house; host or cells: E. coli BL21(DE3)
T1 sequence (P10274 450-565 L489I): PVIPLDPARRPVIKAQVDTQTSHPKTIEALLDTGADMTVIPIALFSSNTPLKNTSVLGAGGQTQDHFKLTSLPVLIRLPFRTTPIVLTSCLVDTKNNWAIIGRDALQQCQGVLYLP
Description: biochemical. The format is biochemical, human T-cell leukemia virus type 1 (HTLV-1). The settings on record: for inhibitory activity relative to RI-inhibitor 3: effect of D-allo-Ile replacement, RI-inhibitor 3 as reference, recombinant protease. On the procedure: The reaction mixture was directly analyzed by analytical HPLC with a C18 reversed-phase column. Each IC50 value of the RI-type inhibitor was obtained from the sigmoidal dose–response curve (Figure S6) calculated from the decrease in substrate concentration.
The reaction mixture was analyzed on a Cosmosil 5C18-ARII column (4.6 × 150 mm), employing a linear gradient of CH3CN (10–40%, 30 min) in aqueous 0.1% TFA. Each IC50 value was obtained from a sigmoidal dose–response curve obtained from the decrease in the substrate in the reaction mixture (Figure S3). Each experiment was repeated three times.

In test [2] the test system is recombinant HTLV-1 protease. In words: Cleavage of allo-Ile-containing substrates by recombinant HTLV-1 protease, analytical HPLC. The format is biochemical, human T-cell leukemia virus type 1 (HTLV-1). The settings on record: decrease in substrate by analytical HPLC, Figure 3. On the procedure:
Each synthesized substrate (4–6) was then treated with the recombinant HTLV-1 protease, and the decrease in each substrate level was monitored using analytical HPLC [15].
Figure 3 Cleavage reaction of the substrates containing allo-Ile residues by the HTLV-1 protease: blue, original substrate; orange, substrate 4; gray, substrate 5; yellow, substrate 6.

For a further test, the system named is HTLV-1 protease. The following applies: ref [20]; cited from earlier work.

For `CC[C@@H](C)[C@@H](NC(=O)[C@@H](CC(C)C)[C@H](O)C[C@H]1CCCN1C(=O)[C@H](NC(C)=O)[C@H](C)CC)C(=O)N[C@@H](C(=O)N1CCC[C@@H]1C(=O)N1CCC[C@@H]1C(N)=O)C(C)C` [RI-inhibitor 3] (Ac-[dI][X1][dI][dV][dP][dP]-NH2), the IC50 (commonly the concentration at which inhibition is half-maximal) in test [1] came out at 240 µM.

On to “substrate 5: substrate 5 containing an allo-Ile residue at the non-prime site (6-allo-Ile) (KGPPV[aIle]LPIQAP-NH2; N-terminus assumed; SMILES CC[C@@H](C)[C@H](NC(=O)[C@@H](NC(=O)[C@@H]1CCCN1C(=O)[C@@H]1CCCN1C(=O)CNC(=O)[C@@H](N)CCCCN)C(C)C)C(=O)N[C@@H](CC(C)C)C(=O)N1CCC[C@H]1C(=O)N[C@H](C(=O)N[C@@H](CCC(N)=O)C(=O)N[C@@H](C)C(=O)N1CCC[C@H]1C(N)=O)[C@@H](C)CC)”, for which the “cleavage rate compared with original substrate, in words” value in test [2] is listed as “clearly showed a lower cleavage rate than the original substrate”.

Consider “substrate 4: substrate 4 containing an allo-Ile residue at the prime site (9-allo-Ile) (KGPPVILP[aIle]QAP-NH2; N-terminus assumed; SMILES CC[C@@H](C)[C@H](NC(=O)[C@@H]1CCCN1C(=O)[C@H](CC(C)C)NC(=O)[C@@H](NC(=O)[C@@H](NC(=O)[C@@H]1CCCN1C(=O)[C@@H]1CCCN1C(=O)CNC(=O)[C@@H](N)CCCCN)C(C)C)[C@@H](C)CC)C(=O)N[C@@H](CCC(N)=O)C(=O)N[C@@H](C)C(=O)N1CCC[C@H]1C(N)=O)”, for which the “cleavage rate compared with original substrate, in words” value in test [2] was “cleaved at a slightly lower rate than the original substrate”.

As to “substrate 6: substrate 6 containing two allo-Ile residues at both sites (6,9-allo-Ile) (KGPPV[aIle]LP[aIle]QAP-NH2; N-terminus assumed; SMILES CC[C@@H](C)[C@H](NC(=O)[C@@H](NC(=O)[C@@H]1CCCN1C(=O)[C@@H]1CCCN1C(=O)CNC(=O)[C@@H](N)CCCCN)C(C)C)C(=O)N[C@@H](CC(C)C)C(=O)N1CCC[C@H]1C(=O)N[C@H](C(=O)N[C@@H](CCC(N)=O)C(=O)N[C@@H](C)C(=O)N1CCC[C@H]1C(N)=O)[C@H](C)CC)”, the “cleavage rate compared with original substrate, in words” value in test [2] is reported as “clearly showed a lower cleavage rate than the original substrate”.

`CC[C@@H](C)[C@@H](NC(=O)[C@@H](CC(C)C)[C@H](O)C[C@H]1CCCN1C(=O)[C@H](NC(C)=O)[C@@H](C)CC)C(=O)N[C@@H](C(=O)N1CCC[C@@H]1C(=O)N1CCC[C@@H]1C(N)=O)C(C)C` [RI-inhibitor 8] (Ac-[d(aIle)][X1][dI][dV][dP][dP]-NH2): in test [1], the IC50 was 110 µM and the “inhibitory activity relative to RI-inhibitor 3” value is recorded as “doubled the inhibitory activity”.

Turning to `C[C@@H](NC(=O)[C@H]1N(C(=O)[C@@H](O)[C@H](Cc2ccccc2)NC(=O)[C@@H](NC(=O)[C@@H](NC(=O)CN2CCOCC2)c2ccccc2)C(C)(C)C)CSC1(C)C)C(C)(C)C` [KNI-10729], in the test with HTLV-1 protease, the inhibition (in general, the relative decrease from the control value, in per cent) at 50 nM is on record as 79%.

Regarding `CC[C@@H](C)[C@@H](NC(C)=O)C(=O)N1CCC[C@@H]1C[C@@H](O)[C@H](CC(C)C)C(=O)N[C@@H](C(=O)N[C@@H](C(=O)N1CCC[C@@H]1C(=O)N1CCC[C@@H]1C(N)=O)C(C)C)[C@@H](C)CC` [RI-inhibitor 9] (Ac-[dI][X1][d(aIle)][dV][dP][dP]-NH2), in test [1], the concentration for half-maximal inhibition (IC50) came to 130 µM and the “inhibitory activity relative to RI-inhibitor 3” value is recorded as “doubled the inhibitory activity”.

As to `CC[C@H](C)[C@@H](NC(=O)[C@@H](CC(C)C)[C@H](O)C[C@H]1CCCN1C(=O)[C@H](NC(C)=O)[C@@H](C)CC)C(=O)N[C@@H](C(=O)N1CCC[C@@H]1C(=O)N1CCC[C@@H]1C(N)=O)C(C)C` [RI-inhibitor 10] (Ac-[d(aIle)][X1][d(aIle)][dV][dP][dP]-NH2), in test [1], the half-inhibitory concentration (IC50) was 85 µM and the “inhibitory activity relative to RI-inhibitor 3” value was “tripled the inhibitory activity”.
